PubChem BioAssay AID238 (DTP/NCI, 2004)
Where “and” joins values, the source holds several entries; their conditions need not be identical. Equal entries are not always repeated. Inconclusive results and toxic doses are left out.

System: CAF1 mice, leiomyosarcoma No.2 ip, survival T/C%
Test: NCI In Vivo Anticancer Drug Screen. Data for tumor model Leiomyosarcoma (No. 2) (intraperitoneal) in CAF1 mice
Conditions: endpoint: mean survival time, schedule: Q01DX010 (ip), vehicle: saline, higher = longer survival
Experimental: The antitumor activity of compounds was measured in mice bearing transplantable tumors. Survival or tumor size were measured and the results are expressed as the measurement made in the treated group (T) divided by the measurement made in the vehicle treated control group (C). The tumor model used in this assay is Leiomyosarcoma (No. 2) (intraperitoneal) in CAF1 mice

CC(CCC(C)OS(C)(=O)=O)OS(C)(=O)=O (stereo not given)
T/C (dose: 2.0 mg/kg/injection): 104 % of control
T/C (dose: 4.0 mg/kg/injection): 100 % of control
T/C (dose: 8.0 mg/kg/injection): 103 % of control and 104 % of control
T/C (dose: 16.0 mg/kg/injection): 117 % of control

CC(=O)N(C)C
T/C (dose: 62.5 mg/kg/injection): 90 % of control
T/C (dose: 250.0 mg/kg/injection): 96 % of control

Clc1ncnc2nc[nH]c12
T/C (dose: 7.5 mg/kg/injection): 86 % of control and 107 % of control
T/C (dose: 15.0 mg/kg/injection): 93 % of control and 103 % of control
T/C (dose: 30.0 mg/kg/injection): 111 % of control and 116 % of control
T/C (dose: 60.0 mg/kg/injection): 107 % of control

NC(Cc1ccc(N(CCCl)CCCl)cc1)C(=O)O (stereo not given)
T/C (dose: 2.5 mg/kg/injection): 191 % of control and 265 % of control
T/C (dose: 5.0 mg/kg/injection): 166 % of control and 207 % of control
T/C (dose: 10.0 mg/kg/injection): 150 % of control and 258 % of control
T/C (dose: 20.0 mg/kg/injection): 192 % of control

Nc1nc(SCc2ccccc2)c2[nH]cnc2n1
T/C (dose: 8.0 mg/kg/injection): 112 % of control and 115 % of control
T/C (dose: 16.0 mg/kg/injection): 100 % of control
T/C (dose: 32.0 mg/kg/injection): 107 % of control and 120 % of control
T/C (dose: 64.0 mg/kg/injection): 103 % of control and 104 % of control

CCn1cnc2c(=S)nc[nH]c21
T/C (dose: 15.6 mg/kg/injection): 100 % of control and 108 % of control
T/C (dose: 31.3 mg/kg/injection): 96 % of control and 100 % of control
T/C (dose: 62.5 mg/kg/injection): 100 % of control and 119 % of control
T/C (dose: 125.0 mg/kg/injection): 112 % of control

CS(=O)(=O)OCCC(=O)N1CCN(C(=O)CCOS(C)(=O)=O)CC1
T/C (dose: 12.5 mg/kg/injection): 172 % of control
T/C (dose: 25.0 mg/kg/injection): 224 % of control
T/C (dose: 50.0 mg/kg/injection): 232 % of control
T/C (dose: 100.0 mg/kg/injection): 304 % of control

Nc1nc(=S)c2ncn(C3OC(CO)C(O)C3O)c2[nH]1 (stereo not given)
T/C (dose: 1.0 mg/kg/injection): 258 % of control
T/C (dose: 2.0 mg/kg/injection): 197 % of control and 204 % of control
T/C (dose: 4.0 mg/kg/injection): 118 % of control
T/C (dose: 8.0 mg/kg/injection): 90 % of control

C1CN1c1nc(N2CC2)nc(N2CC2)n1
T/C (dose: 0.13 mg/kg/injection): 117 % of control
T/C (dose: 0.25 mg/kg/injection): 121 % of control
T/C (dose: 0.5 mg/kg/injection): 196 % of control and 233 % of control

O=NN(CCCl)C(=O)NCCCl
T/C (dose: 3.13 mg/kg/injection): 300 % of control
T/C (dose: 6.25 mg/kg/injection): 258 % of control and 300 % of control
T/C (dose: 12.5 mg/kg/injection): 115 % of control and 120 % of control

c1ccc(CNc2ncnc3[nH]ncc23)cc1
T/C (dose: 8.0 mg/kg/injection): 95 % of control and 103 % of control
T/C (dose: 16.0 mg/kg/injection): 92 % of control and 100 % of control
T/C (dose: 32.0 mg/kg/injection): 92 % of control and 100 % of control
T/C (dose: 64.0 mg/kg/injection): 95 % of control and 96 % of control

CCCCOP(=S)(N1CC1)N1CC1
T/C (dose: 4.0 mg/kg/injection): 165 % of control
T/C (dose: 8.0 mg/kg/injection): 223 % of control
T/C (dose: 16.0 mg/kg/injection): 250 % of control

CN(C)c1ccc(Nc2c3ccccc3nc3ccccc23)cc1
T/C (dose: 36.0 mg/kg/injection): 121 % of control
T/C (dose: 54.0 mg/kg/injection): 121 % of control
T/C (dose: 80.0 mg/kg/injection): 300 % of control
T/C (dose: 120.0 mg/kg/injection): 300 % of control

Cn1c(N)nc2nc[nH]c2c1=S
T/C (dose: 10.0 mg/kg/injection): 100 % of control
T/C (dose: 20.0 mg/kg/injection): 120 % of control
T/C (dose: 40.0 mg/kg/injection): 104 % of control
T/C (dose: 80.0 mg/kg/injection): 108 % of control

CN(C)/N=N/c1nc[nH]c1C(N)=O
T/C (dose: 25.0 mg/kg/injection): 109 % of control
T/C (dose: 50.0 mg/kg/injection): 109 % of control and 113 % of control
T/C (dose: 100.0 mg/kg/injection): 118 % of control
T/C (dose: 200.0 mg/kg/injection): 163 % of control
T/C (dose: 400.0 mg/kg/injection): 86 % of control

C=CC(CN1CC1)OC(C)=O (stereo not given)
T/C (dose: 2.0 mg/kg/injection): 104 % of control
T/C (dose: 8.0 mg/kg/injection): 176 % of control

C#CCN(C)Cc1ccccc1
T/C (dose: 50.0 mg/kg/injection): 102 % of control
T/C (dose: 100.0 mg/kg/injection): 88 % of control
T/C (dose: 200.0 mg/kg/injection): 91 % of control

O=c1cnn(C2OC(CO)C(O)C2O)c(=O)[nH]1 (stereo not given)
T/C (dose: 200.0 mg/kg/injection): 104 % of control and 107 % of control
T/C (dose: 400.0 mg/kg/injection): 104 % of control and 107 % of control
T/C (dose: 800.0 mg/kg/injection): 107 % of control and 112 % of control

C[C@@H]1C[C@@H]([C@H](O)CC2CC(=O)NC(=O)C2)C(=O)[C@@H](C)C1
T/C (dose: 5.0 mg/kg/injection): 100 % of control and 103 % of control
T/C (dose: 10.0 mg/kg/injection): 110 % of control and 111 % of control
T/C (dose: 20.0 mg/kg/injection): 116 % of control
T/C (dose: 40.0 mg/kg/injection): 163 % of control and 169 % of control

CCOC(=O)c1[nH]c2ccccc2c1CN(CCCl)CCCl
T/C (dose: 10.0 mg/kg/injection): 116 % of control
T/C (dose: 20.0 mg/kg/injection): 170 % of control
T/C (dose: 40.0 mg/kg/injection): 150 % of control

N#CCSc1ncnc2nc[nH]c12
T/C (dose: 15.0 mg/kg/injection): 86 % of control and 113 % of control
T/C (dose: 30.0 mg/kg/injection): 118 % of control and 120 % of control
T/C (dose: 60.0 mg/kg/injection): 113 % of control
T/C (dose: 120.0 mg/kg/injection): 118 % of control
